Reference: article PMC4340794, “Pharmacokinetic Study of 14-(3-Methylbenzyl)matrine and 14-(4-Methylbenzyl)matrine in Rat Plasma Using Liquid Chromatography-Tandem Mass Spectrometry” (PLoS ONE, 2015)

Assays:
hepatoma = system: hepatoma; set-up: method as in earlier work; conditions: cited from earlier work; for tumor inhibition rate: previous pharmacological experiment
[1] = PK study using rats, oral administration, plasma levels by HPLC-MS/MS; type: in vivo, Sprague–Dawley rats; conditions: oral (gavage) 25 mg/kg, mean ± SD; for Tmax / AUC(0-t) / Cmax / half-life / k el / MRT last: Sprague-Dawley; for Tmax / AUC(0-t): rat, plasma, po, 25 mg/kg; for Cmax / half-life / k el / MRT last / CL / V: rat plasma; for k el: read-out: Ke (converted); for MRT last: read-out: MRT0−t (converted)
Method: HPLC analysis was performed using the Dionex UltiMate 3000 HPLC equipped with a binary pump, an on-line degasser, an auto-sampler and a column temperature controller. The chromatographic separations were performed using a Hypersil GOLD C18 column (100 mm × 2.1 mm, 1.9 μm particle size) protected by a C18 guard column (10 mm × 2.1 mm, 5 μm) at 40°C. The mobile phase consisted of acetonitrile:0.1% formic acid (65:35, v/v). The flow rate was set at 0.2 ml/min. Aliquots of 2 μl were injected into the HPLC system for analysis.
MS analysis was performed using a Thermo Scientific TSQ Quantum Access MAX triple-stage quadrupole mass spectrometer equipped with an electrospray ionization (ESI) source in the positive-ionization mode. The typical ion source parameters were as follows: spray voltage: 3500 V; sheath gas pressure (N2): 20 units; auxiliary gas pressure (N2): 5 units; ion transfer tube temperature: 350°C; collision gas (Ar): 1.5 mTorr; Q1/Q3 peak resolution: 0.7 Da; and scan width: 0.002 Da. The samples were analyzed via selective-reaction monitoring (SRM) of the ion pairs at m/z 343 → 148 for 3MBM, m/z 343 → 148 for 4MBM, or m/z 166 → 133 for the IS. The scan dwell time was set at 0.1 s for every channel. All data collected in the centroid mode were acquired and processed using Xcalibur 2.2 software (Thermo Fisher Scientific, Inc., USA).
Each plasma sample (100 μl) was mixed with 20 μl of the working IS solution in a 1.5-ml labeled microcentrifuge tube and was vortexed for 5 s. Then, 1000 μl of isopropanol:ethyl acetate (v/v, 25:75) was added, and each sample was vortexed for 1 min. Each tube was subsequently centrifuged at 12,000 × g for 10 min. The organic layer was transferred to another tube and evaporated to dryness at ambient temperature under a gentle stream of nitrogen. The residue was reconstituted in 100 μl of the mobile phase, and 2 μl of each sample was injected into the HPLC–MS/MS system for analysis.
Aqueous solutions of 3MBM and 4MBM were separately administered to 12 rats via gavage at 25 mg/kg (2.5 mg/ml aqueous solutions), which was equivalent to the dose administered to mice in our previous study. Serial blood samples (0.5 ml) were obtained at 0, 15, 30, 45, 60, 90, 120, 150, 240, 600, 960, and 1440 min after oral administration. All samples were placed in heparinized tubes. After centrifugation at 12,000 rpm and 4°C for 10 min, the plasma was collected and frozen at −20°C until analysis. The PK parameters were estimated according to a non-compartmental model using the TopFit 2.0 software package (Thomae, Germany). The elimination half-life (t1/2) was 0.693/ke, where ke, the elimination rate constant, was calculated by fitting the mean data at four terminal points of the plasma concentration profile to a log-linear regression equation using the least-squares method. The maximum drug plasma concentration (Cmax) and time to Cmax (Tmax) were directly determined from the observed data. The area under the plasma concentration–time curve from zero to the time of the final measurable sample (AUC0−t) was calculated using the linear-trapezoidal rule.

[2] = Stability of analytes in rat plasma samples (post-preparative, freeze–thaw, long-term cold storage); type: in vitro ADME; conditions: for Stability III R.E. / Stability III Concentration / Stability II R.E. / Stability II Concentration: plasma; for Stability III R.E. / Stability III Concentration: 60 days at -20° C; for Stability III Concentration / Stability II Concentration / Stability I Concentration: n = 6, mean ± SD; for Stability II R.E. / Stability II Concentration: three freeze-thaw cycles; for Stability I R.E. / Stability I Concentration: processed samples, auto-sampler 24 h
Method: Selectivity was assessed by comparing the chromatograms of six different batches of blank rat plasma to the corresponding spiked rat plasma. Linearity was assessed via weighted (1/x^2) analysis of the six different calibration curves. Intra- and inter-day precision (the relative standard deviation, RSD) and accuracy (the relative error, RE) were determined by analyzing the low-, intermediate-, and high-concentration QC samples (n = 6) on three different days. The matrix effect was investigated by comparing the peak areas of the analytes in the post-extraction spiked blank plasma samples at low and high analyte concentrations to the corresponding standard solutions. The extraction yield was determined by comparing the mean peak areas of the six extracted samples at low, intermediate, and high QC concentrations to the mean peak areas of the spike-after-extraction samples. Stability was assessed by analyzing the replicates (n = 6) of the low, intermediate and high QC samples during the sample storage and processing procedures. Freeze–thaw stability was determined after three freeze–thaw cycles. Post-preparation stability was estimated by analyzing the QC samples after 24 h at 4°C. Six aliquots of the QC samples were stored at −20°C for 60 days to determine their long-term stability.

| Tmax [1] [h] | AUC(0-t) ([1]; first AUC0-t line of Table 3) [ng·h/mL] | AUC(0-t) ([1]; second AUC0-t line of Table 3) [ng·h/mL] | Cmax [1] [ng/mL] | half-life [1] [h] | k el [1] [s⁻¹] | MRT last [1] [h] | CL [1] [mL/min] | V [1] [mL] | Stability III R.E. ([2]; spike 5 ng/ml) [%] | Stability III Concentration ([2]; spike 5 ng/ml) [ng/mL] | Stability II Concentration ([2]; spike 5 ng/ml) [ng/mL] | Stability I R.E. ([2]; spike 5 ng/ml) [%] | Stability I Concentration ([2]; spike 5 ng/ml) [ng/mL] | Stability III R.E. ([2]; spike 800 ng/ml) [%] | Stability III Concentration ([2]; spike 800 ng/ml) [ng/mL] | Stability II R.E. ([2]; spike 800 ng/ml) [%] | Stability II Concentration ([2]; spike 800 ng/ml) [ng/mL] | Stability I R.E. ([2]; spike 800 ng/ml) [%] | SMILES | tumor inhibition rate (hepatoma) [%] | further results |
| --- | --- | --- | --- | --- | --- | --- | --- | --- | --- | --- | --- | --- | --- | --- | --- | --- | --- | --- | --- | --- | --- |
| – | – | – | – | – | – | – | – | – | – | – | – | – | – | – | – | – | – | – | O=C1CCC[C@@H]2[C@H]3CCCN4CCC[C@@H](CN12)[C@@H]34 [MT, Matrine] | 39.69 | – |
| 1.47 | 7210 | 7480 | 1050 ± 233 | 4.97 ± 0.583 | 3.92e-05 | 7.4 | 59 ± 13 | 25119 ± 5779 | -3.80 | 4.81 ± 0.42 | 5.15 ± 0.35 | -1.02 | 4.94 ± 0.46 | 1.22 | 809.8 ± 30.9 | -1.82 | 785.4 ± 46.8 | -1.03 | Cc1cccc(CC2CCC3C4CCCN5CCCC(CN3C2=O)C45)c1 (stereo not drawn) [3MBM, 14-(3-methylbenzyl)matrine] | 61.83 | Stability II R.E. ([2]; spike 5 ng/ml): 2.87%; Stability I Concentration ([2]; spike 800 ng/ml): 791.7 ± 13.6 ng/mL; Stability III R.E. ([2]; spike 1600 ng/ml): 3.78%; Stability III Concentration ([2]; spike 1600 ng/ml): 1660 ± 63.9 ng/mL; Stability II R.E. ([2]; spike 1600 ng/ml): 2.46%; Stability II Concentration ([2]; spike 1600 ng/ml): 1639 ± 98.5 ng/mL; Stability I R.E. ([2]; spike 1600 ng/ml): -0.40%; Stability I Concentration ([2]; spike 1600 ng/ml): 1593 ± 39.9 ng/mL; anti-hepatoma activity in vivo (hepatoma; compared with cyclophosphamide): the same as those of the reference substances of cyclophosphamide |
| ~1.58 | 7680 | 7920 | 992 ± 275 | 4.92 ± 0.367 | 3.94e-05 | 7.67 | 59 ± 21 | 24361 ± 6921 | 2.60 | 5.13 ± 0.37 | 4.98 ± 0.23 | 3.20 | 5.16 ± 0.29 | -1.58 | 787.4 ± 24.1 | -1.30 | 789.6 ± 67.9 | 3.11 | Cc1ccc(CC2CCC3C4CCCN5CCCC(CN3C2=O)C45)cc1 (stereo not drawn) [4MBM, 14-(4-methylbenzyl)matrine] | 51.15 | Stability I Concentration ([2]; spike 800 ng/ml): 824.9 ± 37.2 ng/mL; Stability III R.E. ([2]; spike 1600 ng/ml): 2.23%; Stability III Concentration ([2]; spike 1600 ng/ml): 1636 ± 36.6 ng/mL; Stability II R.E. ([2]; spike 1600 ng/ml): -1.04%; Stability II Concentration ([2]; spike 1600 ng/ml): 1583 ± 99.2 ng/mL; Stability I R.E. ([2]; spike 1600 ng/ml): -1.42%; Stability I Concentration ([2]; spike 1600 ng/ml): 1577 ± 60.7 ng/mL |
